Measurements taken from ChEMBL document CHEMBL2424575 (Eur J Med Chem, 2013).
pIC50: −log10 of the molar value.

Columns and labels:
Dipeptidyl peptidase 8 = Dipeptidyl peptidase 8 (Homo sapiens, UniProt Q6V1X1); assay: Inhibition of DPP-8 (unknown origin)
Dipeptidyl peptidase 9 = Dipeptidyl peptidase 9 (Homo sapiens, UniProt Q86TI2)
Description: Inhibition of DPP-9 (unknown origin)

[1] = Oral bioavailability in Sprague-Dawley rat at 25 mg/kg; assay type: ADME, organism-based; details: in vivo
[2] = Half life in Sprague-Dawley rat at 25 mg/kg, po; assay type: ADME, organism-based; set-up: dose 25 mg/kg, route oral; details: in vivo
Cytochrome P450 3A4 = Cytochrome P450 3A4 (Homo sapiens, UniProt P08684); assay: Inhibition of CYP3A (unknown origin); assay type: ADME
Sequence of Cytochrome P450 3A4 (P08684 whole entry): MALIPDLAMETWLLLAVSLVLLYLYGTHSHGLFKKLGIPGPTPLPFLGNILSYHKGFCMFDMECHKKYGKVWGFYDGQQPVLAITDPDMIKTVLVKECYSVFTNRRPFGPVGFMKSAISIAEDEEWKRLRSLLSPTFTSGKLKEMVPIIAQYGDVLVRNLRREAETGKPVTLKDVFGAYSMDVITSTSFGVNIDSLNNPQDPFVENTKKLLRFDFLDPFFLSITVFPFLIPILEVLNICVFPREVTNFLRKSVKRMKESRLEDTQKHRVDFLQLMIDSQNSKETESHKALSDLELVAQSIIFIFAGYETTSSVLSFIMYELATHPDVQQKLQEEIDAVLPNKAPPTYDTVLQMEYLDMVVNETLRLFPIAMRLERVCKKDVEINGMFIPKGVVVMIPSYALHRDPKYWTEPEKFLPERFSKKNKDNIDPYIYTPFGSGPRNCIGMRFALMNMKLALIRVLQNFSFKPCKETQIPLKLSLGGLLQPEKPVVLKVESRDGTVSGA

Mus musculus [3] = assay: In vivo inhibition of DPP-4 in ICR mouse assessed as cleavage rate of Gly-Pro-AMC in plasma at 1 mg/kg, po measured at 24 hrs by fluorescence assay relative to control; assay type: functional
Mus musculus [4] = assay: In vivo inhibition of DPP-4 in ICR mouse assessed as cleavage rate of Gly-Pro-AMC in plasma at 1 mg/kg, po measured at 7 hrs by fluorescence assay relative to control; assay type: functional
Mus musculus [5] = assay: In vivo inhibition of DPP-4 in ICR mouse assessed as cleavage rate of Gly-Pro-AMC in plasma at 1 mg/kg, po measured at 4.5 hrs by fluorescence assay relative to control; assay type: functional
Mus musculus [6] = assay: In vivo inhibition of DPP-4 in ICR mouse assessed as cleavage rate of Gly-Pro-AMC in plasma at 1 mg/kg, po measured at 0.5 hrs by fluorescence assay relative to control; assay type: functional
Mus musculus [7] = assay: In vivo inhibition of DPP-4 in ICR mouse assessed as cleavage rate of Gly-Pro-AMC in plasma at 3 mg/kg, po measured at 24 hrs by fluorescence assay relative to control; assay type: functional
Mus musculus [8] = assay: In vivo inhibition of DPP-4 in ICR mouse assessed as cleavage rate of Gly-Pro-AMC in plasma at 3 mg/kg, po measured at 7 hrs by fluorescence assay relative to control; assay type: functional
Mus musculus [9] = assay: In vivo inhibition of DPP-4 in ICR mouse assessed as cleavage rate of Gly-Pro-AMC in plasma at 3 mg/kg, po measured at 4.5 hrs by fluorescence assay relative to control; assay type: functional
Mus musculus [10] = assay: In vivo inhibition of DPP-4 in ICR mouse assessed as cleavage rate of Gly-Pro-AMC in plasma at 3 mg/kg, po measured at 0.5 hrs by fluorescence assay relative to control; assay type: functional
[11] = Apparent volume of distribution during terminal phase in Sprague-Dawley rat at 5 mg/kg, iv and 25 mg/kg, po; assay type: ADME, organism-based; details: in vivo, read-out: Vz/F
[12] = AUC (0 to t) in Sprague-Dawley rat at 25 mg/kg, po; assay type: ADME, organism-based; set-up: dose 25 mg/kg, route oral; details: plasma
[13] = Plasma clearance in Sprague-Dawley rat at 5 mg/kg, iv and 25 mg/kg, po; assay type: ADME, organism-based
[14] = Half life in Sprague-Dawley rat at 5 mg/kg, iv; assay type: ADME, organism-based; set-up: dose 5 mg/kg, route intravenous; details: in vivo
[15] = biological target: Voltage-gated inwardly rectifying potassium channel KCNH2 (Homo sapiens, UniProt Q12809); assay: Inhibition of human ERG
Sequence of Voltage-gated inwardly rectifying potassium channel KCNH2 (Q12809 whole entry): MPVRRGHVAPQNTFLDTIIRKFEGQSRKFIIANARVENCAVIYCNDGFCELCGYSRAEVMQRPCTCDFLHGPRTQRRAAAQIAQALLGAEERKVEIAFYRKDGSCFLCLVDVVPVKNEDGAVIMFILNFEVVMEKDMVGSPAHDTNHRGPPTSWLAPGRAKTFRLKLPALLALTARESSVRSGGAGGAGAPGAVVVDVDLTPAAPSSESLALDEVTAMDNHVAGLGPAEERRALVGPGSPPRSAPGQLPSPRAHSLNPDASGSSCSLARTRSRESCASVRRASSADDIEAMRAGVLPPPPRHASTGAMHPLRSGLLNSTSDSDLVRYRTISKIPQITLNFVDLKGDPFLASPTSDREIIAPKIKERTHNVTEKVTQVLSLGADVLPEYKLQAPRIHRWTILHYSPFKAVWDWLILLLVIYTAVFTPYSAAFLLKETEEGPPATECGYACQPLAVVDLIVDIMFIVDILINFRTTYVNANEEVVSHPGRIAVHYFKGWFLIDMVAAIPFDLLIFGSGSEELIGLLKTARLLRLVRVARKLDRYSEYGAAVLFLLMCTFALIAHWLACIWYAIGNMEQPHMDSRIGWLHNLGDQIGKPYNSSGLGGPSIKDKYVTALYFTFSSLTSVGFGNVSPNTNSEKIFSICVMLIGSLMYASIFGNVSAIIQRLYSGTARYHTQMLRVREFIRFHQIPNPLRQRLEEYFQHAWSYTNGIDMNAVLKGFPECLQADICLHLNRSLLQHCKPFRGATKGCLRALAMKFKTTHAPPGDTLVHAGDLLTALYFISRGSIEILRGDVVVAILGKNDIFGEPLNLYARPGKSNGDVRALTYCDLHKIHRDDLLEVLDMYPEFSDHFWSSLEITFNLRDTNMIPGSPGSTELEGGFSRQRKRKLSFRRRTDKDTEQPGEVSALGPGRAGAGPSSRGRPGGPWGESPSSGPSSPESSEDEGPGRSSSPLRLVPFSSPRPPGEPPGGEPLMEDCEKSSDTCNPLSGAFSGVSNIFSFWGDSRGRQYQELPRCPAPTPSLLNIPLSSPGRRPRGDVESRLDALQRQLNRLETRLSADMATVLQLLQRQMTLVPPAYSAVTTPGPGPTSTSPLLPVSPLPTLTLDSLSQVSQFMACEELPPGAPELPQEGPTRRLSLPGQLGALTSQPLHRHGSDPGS

Sequence of Dipeptidyl peptidase 9 (Q86TI2 whole entry): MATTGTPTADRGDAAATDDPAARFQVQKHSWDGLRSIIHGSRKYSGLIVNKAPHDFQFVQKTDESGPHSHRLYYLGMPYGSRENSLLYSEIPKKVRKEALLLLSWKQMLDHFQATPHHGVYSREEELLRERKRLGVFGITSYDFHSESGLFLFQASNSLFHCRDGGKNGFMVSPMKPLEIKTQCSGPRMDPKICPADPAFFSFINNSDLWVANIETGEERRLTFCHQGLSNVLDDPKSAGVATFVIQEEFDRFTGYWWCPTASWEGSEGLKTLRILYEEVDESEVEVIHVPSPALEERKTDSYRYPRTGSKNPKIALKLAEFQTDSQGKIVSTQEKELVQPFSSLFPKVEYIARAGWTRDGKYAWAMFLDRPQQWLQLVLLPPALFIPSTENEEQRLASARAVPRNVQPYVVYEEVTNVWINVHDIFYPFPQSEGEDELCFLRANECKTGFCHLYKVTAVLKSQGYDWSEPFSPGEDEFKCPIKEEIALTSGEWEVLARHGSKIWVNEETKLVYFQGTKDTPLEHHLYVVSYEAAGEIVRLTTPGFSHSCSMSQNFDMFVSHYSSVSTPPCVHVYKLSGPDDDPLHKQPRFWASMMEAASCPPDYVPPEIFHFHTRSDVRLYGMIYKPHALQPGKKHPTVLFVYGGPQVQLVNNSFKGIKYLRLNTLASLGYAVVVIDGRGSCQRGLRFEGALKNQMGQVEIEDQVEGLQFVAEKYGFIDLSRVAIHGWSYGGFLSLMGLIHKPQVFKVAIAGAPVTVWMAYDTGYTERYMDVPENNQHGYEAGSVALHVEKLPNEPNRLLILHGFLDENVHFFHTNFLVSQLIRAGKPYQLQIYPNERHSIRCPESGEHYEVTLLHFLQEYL
Sequence of Dipeptidyl peptidase 8 (Q6V1X1 whole entry): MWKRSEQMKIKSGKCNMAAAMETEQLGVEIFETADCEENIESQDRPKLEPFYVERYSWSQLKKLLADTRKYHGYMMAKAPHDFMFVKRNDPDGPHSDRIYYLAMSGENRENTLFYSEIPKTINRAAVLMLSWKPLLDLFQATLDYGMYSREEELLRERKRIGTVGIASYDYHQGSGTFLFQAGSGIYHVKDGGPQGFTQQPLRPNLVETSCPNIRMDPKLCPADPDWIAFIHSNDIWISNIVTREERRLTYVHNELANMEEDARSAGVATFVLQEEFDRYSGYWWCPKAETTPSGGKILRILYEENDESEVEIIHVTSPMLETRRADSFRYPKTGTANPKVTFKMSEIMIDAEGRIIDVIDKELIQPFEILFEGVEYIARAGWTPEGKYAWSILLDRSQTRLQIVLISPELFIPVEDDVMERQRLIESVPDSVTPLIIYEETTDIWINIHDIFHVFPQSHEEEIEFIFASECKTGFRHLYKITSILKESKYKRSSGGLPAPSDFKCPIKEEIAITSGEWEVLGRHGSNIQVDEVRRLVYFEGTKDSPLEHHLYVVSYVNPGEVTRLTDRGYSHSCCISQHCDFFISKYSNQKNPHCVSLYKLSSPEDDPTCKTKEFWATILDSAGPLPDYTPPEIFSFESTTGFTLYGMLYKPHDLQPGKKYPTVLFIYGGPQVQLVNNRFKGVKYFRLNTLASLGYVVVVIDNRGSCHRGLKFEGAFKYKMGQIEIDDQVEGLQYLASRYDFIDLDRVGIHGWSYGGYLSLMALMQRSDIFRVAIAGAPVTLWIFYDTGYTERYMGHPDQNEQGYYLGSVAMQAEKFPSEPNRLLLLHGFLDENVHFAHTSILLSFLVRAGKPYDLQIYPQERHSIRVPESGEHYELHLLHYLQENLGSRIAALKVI

SMILES	pIC50 (Dipeptidyl peptidase 8)	pIC50 (Dipeptidyl peptidase 9)	pIC50 (Cytochrome P450 3A4)	other results
CC#CCn1c(N2CCC[C@@H](N)C2)cc(=O)n(CC#CC)c1=O	< 4.00	< 4.00		
CC#CCn1c(N2CCC[C@@H](N)C2)cc(=O)n(Cc2ccccc2)c1=O	< 4.00	< 4.00		
CC#CCn1c(N2CCC[C@@H](N)C2)cc(=O)n(Cc2ncccn2)c1=O	< 4.00	< 4.00		
CC#CCn1c(N2CCC[C@@H](N)C2)cc(=O)n(Cc2nc3ccccc3[nH]2)c1=O	< 4.00	< 4.00		
CC#CCn1c(N2CCC[C@@H](N)C2)cc(=O)n(Cc2ccc3ccccc3n2)c1=O	< 4.00	< 4.00	4.01	bioavailability [1]: 63%; half-life [2]: 4.2 h
CC#CCn1c(N2CCC[C@@H](N)C2)cc(=O)n(Cc2ccc3c(ccc4ccccc43)n2)c1=O	< 4.00	< 4.00		
CC#CCn1c(N2CCC[C@@H](N)C2)cc(=O)n(Cc2ccc3cc(Br)ccc3n2)c1=O	< 4.00	< 4.00	4.10	
CC#CCn1c(N2CCC[C@@H](N)C2)cc(=O)n(Cc2ccc3cc(Cl)ccc3n2)c1=O	< 4.00	< 4.00	4.04	
CC#CCn1c(N2CCC[C@@H](N)C2)cc(=O)n(Cc2ccc3cc(F)ccc3n2)c1=O	< 4.00	< 4.00	4.23	
CC#CCn1c(N2CCC[C@@H](N)C2)cc(=O)n(Cc2ccc3cc(C)ccc3n2)c1=O	< 4.00	< 4.00	4.33	
CC#CCn1c(N2CCC[C@@H](N)C2)cc(=O)n(Cc2ccc3cc(OC)ccc3n2)c1=O	< 4.00	< 4.00	4.37	
CC#CCn1c(N2CCC[C@@H](N)C2)cc(=O)n(Cc2ccc3ccc(Cl)cc3n2)c1=O	< 4.00	< 4.00	4.34	inhibition in vivo at 1 mg/kg (Mus musculus [3]): 11.5%; inhibition in vivo at 1 mg/kg (Mus musculus [4]): 71.6%; inhibition in vivo at 1 mg/kg (Mus musculus [5]): 76%; inhibition in vivo at 1 mg/kg (Mus musculus [6]): 51.8%; inhibition in vivo at 3 mg/kg (Mus musculus [7]): 13.5%; inhibition in vivo at 3 mg/kg (Mus musculus [8]): 82.3%; inhibition in vivo at 3 mg/kg (Mus musculus [9]): 84.7%; inhibition in vivo at 3 mg/kg (Mus musculus [10]): 80.4%; bioavailability [1]: 73%; Vd/F [11]: 8.65 L/kg; AUC(0-t) [12]: 17600 ng·h/mL; clearance [13]: 17.5 mL/min/kg; half-life [14]: 5.65 h; half-life [2]: 5.02 h; pIC50 [15]: < 4.00
CC#CCn1c(N2CCC[C@@H](N)C2)cc(=O)n(Cc2ccc3ccc(F)cc3n2)c1=O	< 4.00	< 4.00	4.26	
CC#CCn1c(N2CCC[C@@H](N)C2)cc(=O)n(Cc2cc(Cl)c3ccccc3n2)c1=O	< 4.00		4.85	
Cn1c(=O)cc(N2CCC[C@@H](N)C2)n(Cc2ccccc2C#N)c1=O [ALOGLIPTIN]				inhibition in vivo at 1 mg/kg (Mus musculus [3]): 0.5%; inhibition in vivo at 1 mg/kg (Mus musculus [4]): 27.6%; inhibition in vivo at 1 mg/kg (Mus musculus [5]): 49.4%; inhibition in vivo at 1 mg/kg (Mus musculus [6]): 72.6%; inhibition in vivo at 3 mg/kg (Mus musculus [7]): 0.8%; inhibition in vivo at 3 mg/kg (Mus musculus [8]): 50.9%; inhibition in vivo at 3 mg/kg (Mus musculus [9]): 71.5%; inhibition in vivo at 3 mg/kg (Mus musculus [10]): 83.8%; half-life [2]: 2 h
